Measured values published in patent US5665390A, “Stabilized tablet formulation” (SmithKline Beecham Corporation, priority 1993, dated 1997).

Tests used:
[1] = stability of compound in blends/granulations versus compressed tablets; degradation products analyzed by LC/MS; format: physicochemical; conditions: compressed into direct compression or wet granulation tablets with excipients
Source text: Although stable when blended or granulated with one or more commonly used pharmaceutical excipients such as, for example, lactose, tribasic calcium phosphate, silicon dioxide, corn starch, sodium starch glycolate, hydroxypropyl cellulose, hydroxypropyl methylcellulose, gelatin, magnesium stearate, microcrystalline cellulose, mannitol, and sorbitol, substituted 3,5-diene steroidal compounds were unexpectedly found to undergo a significant increase in the rate of formation of degradation products when compressed into tablets with such pharmaceutical excipients. This increase in degradation products occurs whether the substituted 3,5-diene steroidal compound and said excipients are formulated in direct compression tablets or in wet granulation tablets.

steroid 5-α-reductase = conditions: cited from earlier work
[2] = Accelerated Stability Screening Method (tablets stored at 85° C., degradation by HPLC); conditions: additive to tablets of substituted 3,5-diene steroidal compounds
Procedure: The stability of N-t-butyl-androst-3,5-diene-17β-carboxamide-3-carboxylic acid (compound A) in various tablet formulations was determined by HPLC analysis.
In Experiment 1 Compound A, microcrystalline cellulose, lactose, corn starch and sodium starch glycolate shown in Table I below, were mixed in the proportions shown. […] The tablets thus prepared were placed in stability chamber at 85° and the results of the stability test were recorded in Table 2 below.
The tablets thus prepared were placed in stability chamber at 85° C. and the results of the stability test were recorded in Table 3 below.
The tablets thus prepared were placed in stability chamber at 85° C. and the results of the stability test were recorded in Table 5 below.
In Experiment 4 Standard Granulation and BHT (for Batch 8) shown in Table 6 below, or stearic acid and BHT (for Batch 9) shown in Table 7 below, were mixed and granulated in the proportions shown and compressed into tablets of about 350 mg total tablet weight. The tablets thus prepared were placed in stability chamber at 85° C. and the results of the stability test were recorded in Tables 6 and 7 below.
The tablets thus prepared were placed in stability chamber at 85° C. and the results of the stability test were recorded in Table 8 below. […]

| SMILES | formation of degradation products when compressed into tablets [1] | inhibition of steroid 5-α-reductase (steroid 5-α-reductase) | stabilizing effect on tablets (percentage of degradation products) [2] |
| --- | --- | --- | --- |
| CC(C)(C)NC(=O)[C@H]1CC[C@H]2[C@@H]3CC=C4C=C(C(=O)O)CC[C@]4(C)[C@H]3CC[C@]12C [Compound A, N-t-butyl-androst-3,5-diene-17β-carboxamide-3-carboxylic acid] | oxidative additions (the 7 keto oxidation product and others) which only occurred when blends or granulations of Compound A were compressed into tablets | useful in inhibiting steroid 5αreductase | – |
| CCCCCCCCCCCCCCCCCC(=O)O [magnesium stearate] | – | – | do not exhibit such activity |
